Experimental data from publication PMC10856454, “Discovery of Novel Antitumor Small-Molecule Agent with Dual Action of CDK2/p-RB and MDM2/p53” (Molecules, 2024).

Legend:
[1] = Liver microsomal stability, mouse; assay type: in vitro ADME; details: Mice liver microsomes
Protocol: Compounds were incubated with mouse, rat, and human liver microsomal samples and NADPH at 37 °C for 5, 10, 20, 30, or 60 min. The reaction was terminated with a cold acetonitrile solution containing tolbutamide. Compound retention was determined by LC-MS/MS. The retention times, chromatographic acquisition, and chromatographic integration of compounds and positive control substances were analyzed using Analyst (AB Sciex, Framingham, MA, USA).

CDK4 = target: T1, CDK4 (Homo sapiens, UniProt P11802); test: Kinase antagonist activity assay (TR-FRET), CDK4; assay type: biochemical
T1 construct: purchased Thermo Fisher Scientific
T1 sequence (P11802 whole entry): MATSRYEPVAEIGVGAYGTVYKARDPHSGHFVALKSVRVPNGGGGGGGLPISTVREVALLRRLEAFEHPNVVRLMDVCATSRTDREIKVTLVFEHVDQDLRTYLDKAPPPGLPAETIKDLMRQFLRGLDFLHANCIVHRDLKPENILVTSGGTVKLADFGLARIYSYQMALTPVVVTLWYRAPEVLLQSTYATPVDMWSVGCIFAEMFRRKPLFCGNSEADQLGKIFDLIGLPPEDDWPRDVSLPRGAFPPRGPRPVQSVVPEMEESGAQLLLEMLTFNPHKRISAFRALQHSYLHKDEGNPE
T1 sequence (P24385 whole entry partner): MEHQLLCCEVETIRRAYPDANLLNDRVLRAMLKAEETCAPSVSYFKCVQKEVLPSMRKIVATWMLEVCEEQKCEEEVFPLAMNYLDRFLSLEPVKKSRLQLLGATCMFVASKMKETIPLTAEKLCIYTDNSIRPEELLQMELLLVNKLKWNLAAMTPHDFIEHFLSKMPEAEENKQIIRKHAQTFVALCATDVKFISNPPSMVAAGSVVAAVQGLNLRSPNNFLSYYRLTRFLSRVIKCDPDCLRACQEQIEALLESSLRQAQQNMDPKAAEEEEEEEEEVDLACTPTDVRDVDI
Protocol: The compounds were solubilized with DMSO (Solarbio Life Sciences, Beijing, China), and 11 concentrations were serially diluted at 3-fold; 100 nL of compound was added to 384-well plates, 5 μL of 2 × enzyme mixture (Thermo Fisher Scientific, Waltham, MA, USA) was added, and 5 μL of buffer was added instead of the complete inhibition control wells. Then, 1000 rpm centrifugation was performed for 30 s followed by a 15 min incubation at 23 °C. Next, 5 μL of 2 × MLight-MBP peptide (PerkinElmer, Waltham, MA, USA) was added to each well, with 1000 rpm centrifugation for 30 s and incubation at 23 °C for 90 min. At the end of the incubation, the reaction was terminated with buffer containing 15 mM EDTA and 2 nM Eu-anti-P-MBP antibody (PerkinElmer, Waltham, MA, USA), centrifuged at 1000 rpm for 1 min, and incubated at 23 °C for 60 min; the plates were read on a Perkin Elmer Envision ([…]).

Remaining (T = 60 min) ([1]; 60 min): 1.29%
CLint scaled ([1]; mouse): 840 mL/min/kg
half-life ([1]; mouse, NADPH, 37 °C): 6.53 min
IC50 (CDK4): 6.24 µM
IC90 (CDK4): 23.1 µM
Compound: CC1(C)CCN1C(=O)O[C@@H]1CC[C@H](c2cc(NC(=O)Cc3ccc(N4CCCC4=O)cc3)n[nH]2)C1 [III-13]
